The values that follow come from US20240343813A1, “COMBINATION THERAPY AND RELATED METHODS” (Bicara Therapeutics Inc., priority 2023, published 2024).

For data set [1], the system named is TGFβ-induced hKRAS G12C resistant lung cancer cell line (H1792). Description: CellTiter Glo cytotoxicity in TGFβ-induced hKRAS G12C inhibitor resistant cells. It is filed as cell-based. The note with it: long-term TGFβ treated H1792 cells compared to control H1792 cells (wild type); 72 hours. How it is done:
Reports have shown that hKRAS G12C inhibitor efficacy is higher in cancer cells with a low epithelial-mesenchymal transition (EMT) signature compared to a high EMT signature. hTGFβ is known to induce EMT through canonical and non-canonical pathways in various cancers.
Briefly, hKRAS G12C inhibitor resistance was induced in H1792 cells by treating the cells with hTGFβ (4 ng/ml) for at least two weeks. […] Cytotoxicity was evaluated using the CellTiter Glo® Luminescent Cell Viability Assay according to manufacturer's instructions (Promega) (as described in Example 6.3).
On the technique in general: Cellular ATP, detected with luciferase, serves as a proxy for viable cell number.

The next data set relates to H358 lung cancer cells. As to the kind of experiment: Long-term hKRAS G12C inhibitor treatment-induced resistance. In kind it is cell-based. To be noted: H358 treated with increasing concentrations of AMG510 for about one month; vs control (wild type) H358. How it is done: The effect of long duration treatment with a hKRAS G12C inhibitor on acquired hKRAS G12C inhibitor resistance was assessed utilizing an in vitro lung cancer model (H358). Briefly, H358 lung cancer cells were treated with increasing concentrations of the hKRAS G12C inhibitor AMG510 for about one month and cytotoxicity induced by AMG510 subsequently evaluated.

Each structure is given as a SMILES string.

With `C=CC(=O)N1CCN(c2nc(=O)n(-c3c(C)ccnc3C(C)C)c3nc(-c4c(O)cccc4F)c(F)cc23)[C@@H](C)C1` [AMG510, 6-fluoro-7-(2-fluoro-6-hydroxyphenyl)-(1M)-1-[4-methyl-2-(propan-2-yl)pyridin-3-yl]-4-[(2S)-2-methyl-4-(prop-2enoyl)piperazin-1-yl]pyrido[2,3-d]pyrimidin-2 (1H)-one], the “cytotoxicity in response to AMG510 treatment” value in data set [1] is “less cytotoxicity”. Also, the “acquired KRAS G12C inhibitor resistance (percent viability)” value in the data set with H358 lung cancer cells is recorded as “developed KRAS G12C inhibitor (AMG510) resistance”.
